Data taken from patent US8637530B2, “8-(3-amino-piperidin-1-yl)-xanthines, their preparation, and their use as pharmaceuticals” (Boehringer Ingelheim International GmbH, priority 2005, dated 2014).

Key:
[1] = Absorption characteristics (water uptake / hygroscopic behaviour as a function of relative humidity); format: physicochemical; conditions: for hygroscopic characteristics / behaviour: absorption characteristics, FIG. 7 / FIG. 10; for change into a hydrate phase: with rising relative humidity (free base: above 50% r.h.)
[2] = Humidity-dependent X-ray powder images (phase change); format: physicochemical
Procedure: The X-ray powder diagrams, with one exception, were recorded using an STOE Stadi P X-ray powder diffractometer. This diffractometer operates with CuKα1 radiation (gamma=1.5406 Angstroms) and a location-sensitive detector. The X-ray generator was operated at 40 mA and 40 kV.
The X-ray powder diagram of the monohydrate of the free base was recorded with a Bruker D8 Advance X-ray powder diffractometer on which a special air humidity cell made by MRI had been placed. The diagram was recorded at about 72% r.h. The Bruker D8 Advance operates with CuKα radiation (gamma=1.5418 Angstroms) and also a location-sensitive detector. The X-ray generator was operated at 30 mA and 40 kV.

CC#CCn1c(N2CCC[C@@H](N)C2)nc2c1c(=O)n(Cc1ncccc1C#N)c(=O)n2C.Cl [Example 3, 1-[(3-cyano-pyridin-2-yl)methyl]-3-methyl-7-(2-butyn-1-yl)-8-[(R)-3-amino-piperidin-1-yl]-xanthine monohydrochloride]
relative humidity at which water is absorbed ([1]; FIG. 7): > 80 % r.h.
hygroscopic characteristics / behaviour [1]: less marked hygroscopic characteristics
change into a hydrate phase [1]: no reversible change into a hydrate phase
phase change ([2]; above 80% r.h.): no phase change

CC#CCn1c(N2CCC[C@@H](N)C2)nc2c1c(=O)n(Cc1ncccc1C#N)c(=O)n2C [Example 2, 1-[(3-cyano-pyridin-2-yl)methyl]-3-methyl-7-(2-butyn-1-yl)-8-(3-(R)-amino-piperidin-1-yl)-xanthine]
water taken up ([1]; above 50% r.h., FIG. 4): about 4%
relative humidity up to which the anhydrous form is stable ([1]; anhydrous form, FIG. 4): up to 50%
reversibility of the conversion into the monohydrate ([1]; relative humidity brought back to 50% or less): totally reversible
change into a hydrate phase [1]: changes into a monohydrate

CC#CCn1c(N2CCC[C@@H](N)C2)nc2c1c(=O)n(Cc1ncccc1C#N)c(=O)n2C.Cl.Cl [Example 4, 1-[(3-cyano-pyridin-2-yl)methyl]-3-methyl-7-(2-butyn-1-yl)-8-[(R)-3-amino-piperidin-1-yl]-xanthine-dihydrochloride]
hygroscopic characteristics / behaviour [1]: unremarkable hygroscopic behaviour
water uptake over relative humidity ([1]; whole range of relative humidities, FIG. 10): takes up a certain amount of water continuously over the whole range of relative humidities
change into a hydrate phase [1]: no reversible change into a hydrate phase
phase change ([2]; humidity range from 10-90 r.h.): no phase change
